The nature of this series: Intracolonic bioavailability in monkeys. It counts as in vivo, Cynomologous monkeys. Conditions: monkey, whole blood; bioavailability of pregabalin (F %, (SD)) after intracolonic administration, 10 mg-eq pregabalin/kg, suspension, 4 male monkeys, blood LC-MS/MS; salts before crystallization; read-out: Intracolonic Bioavailability Fic (%). The procedure:
Male Cynomologous monkeys weighing about 2.3 kg were used in the studies. Monkeys were fasted overnight prior to the study until 4 hours after dosing. Water was provided ad libitum.
Calcium (3S)-{[(1R)-isobutanoyloxyethoxy]carbonylaminomethyl}-5-methyl-hexanoate (5), calcium (3S)-{[(1S)-isobutanoyloxyisobutoxy]carbonylaminomethyl}-5-methyl-hexanoate (6), or calcium (3S)-{[(1R)-benzoyloxyethoxy]carbonylaminomethyl}-5-methyl-hexanoate (7) (obtained as described in Examples 4, 8, and 12, respectively, and before crystallization according to Examples 13, 14, and 15, respectively) were prepared as a suspension (21.4 mg/mL) in 0.5% methyl cellulose/0.1% Tween-80 in NaH2PO4 pH 7.02.
Calcium (3S)-{[(1R)-isobutanoyloxyethoxy]carbonylaminomethyl}-5-methyl-hexanoate (5), calcium (3S)-{[(1S)-isobutanoyloxyisobutoxy]carbonylaminomethyl}-5-methyl-hexanoate (6), or calcium (3S)-{[(1R)-benzoyloxyethoxy]carbonylaminomethyl}-5-methyl-hexanoate (7) (1 mL/kg; 10 mg-eq pregabalin/kg) were administered intracolonically to 4 monkeys. […]
Blood samples were analyzed by a sensitive and specific LC-MS/MS method for simultaneous determination of (3S)-{[(1R)-isobutanoyloxyethoxy]carbonylaminomethyl}-5-methyl-hexanoate, (3S)-{[(1S)-isobutanoyloxyisobutoxy]carbonylaminomethyl}-5-methyl-hexanoate, or (3S)-{[(1R)-benzoyloxyethoxy]carbonylaminomethyl}-5-methyl-hexanoate; and pregabalin. […]

Take `CC(C)C[C@H](CN)CC(=O)O` [Pregabalin, (3S)-aminomethyl-5-methyl-hexanoic acid]: the bioavailability was determined as 4%.
